In patent US20260014134A1, “COMPOSITION FOR TOPICAL DERMATOLOGICAL DELIVERY” (Limeway Pharma Design Limited, priority 2020, published 2026):
Where “and” joins values, the source holds several entries; their conditions need not be identical. Equal values may be shown once. Read-outs that look alike come from different tables or passages of the source.

Key:
PARP-1 [1] = target: T1, PARP-1 (Homo sapiens, UniProt P09874); experiment: PARP-1 inhibition in vitro (Park J, 2010); format: biochemical
[2] = cited from earlier work
human keratinocytes = conditions: cited from earlier work
PARP-1 [3] = target: T1, PARP-1; conditions: NAM 50 μM; cited from earlier work
[4] = tested on: melanosome transfer from melanocytes to keratinocytes; conditions: cited from earlier work
[5] = tested on: IL-1 beta, IL-6, IL-8 and TNF alpha; conditions: endotoxin-induced model; cited from earlier work
IL-8 = conditions: keratinocytes; cited from earlier work
IL-6 = conditions: NAM at 500 μm, the only dose studied; cited from earlier work
actinic keratoses = conditions: high oral dose, placebo-controlled; cited from earlier work
[6] = tested on: non-melanoma human skin cancers; conditions: cited from earlier work
[7] = tested on: AKs in transplant recipients; conditions: cited from earlier work
bullous pemphigoid = conditions: oral 2 g/day with -cycline antibiotics; cited from earlier work
[8] = tested on: women with symmetrical pigmentation; conditions: 5% and 2% NAM moisturizer; cited from earlier work
[9] = oral dosage; cited from earlier work
[10] = tested on: patients with mild-moderate psoriasis; conditions: end of 12 weeks; cited from earlier work
melasma = conditions: oral, over 12 weeks; cited from earlier work
[11] = cited from earlier work; remark: listed apart in the source
[12] = Saturated solubility of corticosteroids in liquid silicones; format: physicochemical; conditions: including caprylyl methicone
murine flank skin = conditions: 10% PHA applied to murine flank skin; cited from earlier work
human SC = conditions: 5% PHA in propylene glycol/myrystyl alcohol co-enhancer non-silicone cream; up to; cited from earlier work
[13] = tested on: acute radiation dermatitis; conditions: topical cream; cited from earlier work
[14] = Solubility of diffusion coefficient enhancers in propylene glycol and caprylyl methicone; format: physicochemical; conditions: 23-25° C.
Description: As described previously, diffusion coefficient-enhancing excipients (DC enhancers) commonly comprise alcohol, acid or ester derivatives of C8-C22 hydrocarbons.
Conversely, lower carbon chain length acids and alcohols such as C8 and C10 alcohols and C8 and C10 acids may be considered to be far too soluble in hydrocarbyl methyl siloxanes including caprylyl methicone, such that their performance as diffusion coefficient-enhancing excipients would be adversely affected. Similarly, medium chain (for instance C14-C16) isopropyl esters are far too soluble in hydrocarbyl methyl siloxanes such as caprylyl methicone to allow performance as DC enhancers. For both of these classes of DC enhancer, up to 50% DC enhancer would be required to be at or near saturation in the non-volatile residual phase. In contrast, the C12-C14 acids and C14 alcohol have appropriate solubility in caprylyl methicone.
As an example of the outline design of a simple co-enhancer system comprising propylene glycol, and, for example, a C14 alcohol diffusion coefficient enhancer with caprylyl methicone, we might first consider that the concentration of propylene glycol and caprylyl methicone in the final composition (otherwise consisting of non-solvents) to be 25% of each. On this basis, the total amount of C14 alcohol to saturate both of these phases would be 2.44%/4+2.30%/4=1.185%, approximately 1.2%. […]

T1 sequence (P09874 whole entry, species assumed): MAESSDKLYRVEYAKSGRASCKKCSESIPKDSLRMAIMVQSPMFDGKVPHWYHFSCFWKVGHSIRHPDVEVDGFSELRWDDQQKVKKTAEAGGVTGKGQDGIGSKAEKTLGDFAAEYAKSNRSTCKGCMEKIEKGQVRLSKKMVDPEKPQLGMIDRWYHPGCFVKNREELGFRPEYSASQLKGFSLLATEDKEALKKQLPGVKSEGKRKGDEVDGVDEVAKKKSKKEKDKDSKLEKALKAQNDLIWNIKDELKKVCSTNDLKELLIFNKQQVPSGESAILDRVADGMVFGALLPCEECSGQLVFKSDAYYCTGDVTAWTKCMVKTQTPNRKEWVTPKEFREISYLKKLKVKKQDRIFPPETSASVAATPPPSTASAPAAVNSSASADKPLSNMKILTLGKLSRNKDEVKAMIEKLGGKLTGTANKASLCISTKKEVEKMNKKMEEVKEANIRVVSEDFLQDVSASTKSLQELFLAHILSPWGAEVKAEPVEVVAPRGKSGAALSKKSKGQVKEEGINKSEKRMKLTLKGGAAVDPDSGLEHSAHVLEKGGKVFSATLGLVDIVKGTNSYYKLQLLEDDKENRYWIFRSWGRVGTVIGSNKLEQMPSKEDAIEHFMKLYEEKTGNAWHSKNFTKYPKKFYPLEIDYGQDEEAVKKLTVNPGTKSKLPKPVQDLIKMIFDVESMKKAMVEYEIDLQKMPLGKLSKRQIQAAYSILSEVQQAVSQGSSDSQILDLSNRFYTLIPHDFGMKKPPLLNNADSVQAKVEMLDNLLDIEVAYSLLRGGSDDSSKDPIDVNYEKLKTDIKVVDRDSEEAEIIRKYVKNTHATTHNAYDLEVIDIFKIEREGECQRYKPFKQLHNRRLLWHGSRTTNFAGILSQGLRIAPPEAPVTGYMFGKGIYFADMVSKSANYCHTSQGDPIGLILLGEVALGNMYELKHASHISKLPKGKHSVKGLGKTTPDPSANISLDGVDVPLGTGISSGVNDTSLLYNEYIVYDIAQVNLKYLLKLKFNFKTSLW

For `NC(=O)c1cccnc1` [NAM, nicotinamide], the “concentration predicted to be required for significant PARP-1 inhibition” value (PARP-1 [1]) is listed as 50 to 100 µM, the pKa [2] is listed as ~3.5 and 3.5 and the “ceramide biosynthesis, % of maximum response” value (human keratinocytes; NAM 1-10 μM) is listed as 75%-100%. The “concentration at maximum of ceramide synthesis dose response” value (human keratinocytes; in vitro) was roughly 10 µM, the “increase in biosynthesis of ceramides and other stratum corneum lipids” value (human keratinocytes; up to) was “up to 5 fold” and the PARP-1 inhibition (PARP-1 [3]) was 66%. The “inhibition of melanosome transfer” value ([4]; 1.0 mmolL^−1 (1 mM) NAM, coculture model) was 35-68%, the “inhibition of melanosome transfer” value ([4]; NAM 10 μM, after 3 days of treatment) was 14% and the “concentration required for significant effects on proinflammatory cytokines” value [5] was 2,000 μM. The “concentration required to significantly inhibit P. acnes-induced IL-8 mRNA production” value (IL-8) was 5.0 ug/ml and ~40 μM, the “reduction in IL-6 compared to untreated control” value (IL-6) was 88% and the “effect on actinic keratoses” value (actinic keratoses) was “significantly reduced actinic keratoses”. The “peritumoral and tumour infiltrating CD4+ and CD8+ lymphocytes versus placebo” value ([6]; melanomas arising on treatment) was “statistically significantly increased”, the “rates of new non-melanoma skin cancers and actinic keratoses” value ([6]; oral) was “safe and effective in reducing the rates” and the “patients with AKs significantly decreased in size” value ([7]; after six months, 18/19 patients) was 88%. The “patients with complete clinical regression” value ([7]; seven patients) was 42%, the “time to total remission of bullous pemphigoid” value (bullous pemphigoid) was 6-8 weeks and the “reduction in hyperpigmented lesions” value [8] was “dose-dependent reduction in hyperpigmented lesions”. For the same molecule, the “half-life of decrease of peak concentrations in plasma and skin” value [9] was “approximately 90 minutes”.
For `C=C1/C(=C\C=C2/CCC[C@]3(C)[C@@H]([C@H](C)/C=C/[C@@H](O)C4CC4)CC[C@@H]23)C[C@@H](O)C[C@@H]1O` [calcipotriol], the “reduction of PASI score” value [10] is given as 77.8±9.7%.
In the case of `NC[C@H]1CC[C@H](C(=O)O)CC1` [tranexamic acid], the “reduction in melasma (mMASI, MASI) scores” value (melasma) is given as “approximately 50%”.
For `O=C1O[C@H](CO)[C@@H](O)[C@H](O)[C@H]1O` [gluconolactone], the “logP O/W” value [11] is listed as −4.8.
With `CCC(=O)O[C@]1(C(=O)SCF)[C@H](C)C[C@H]2[C@@H]3C[C@H](F)C4=CC(=O)C=C[C@]4(C)[C@@]3(F)[C@@H](O)C[C@@]21C` [fluticasone propionate] the “saturated solubility in a range of liquid silicones” value [12] was “appropriately low”.
In the case of `O=C(O)[C@H](O)[C@@H](O)[C@H](O[C@@H]1O[C@H](CO)[C@H](O)[C@H](O)[C@H]1O)[C@H](O)CO` [lactobionic acid], the “logP O/W” value [11] is listed as −4.8, the “decrease in pH at all SC depths” value (murine flank skin) is listed as 0.5-1.0 pH units and the “decrease in human SC pH in vivo” value (human SC) is listed as “up to 1.5 pH units”.
In the case of `C[C@@H]1C[C@H]2[C@@H]3CCC4=CC(=O)C=C[C@]4(C)[C@@]3(Cl)[C@@H](O)C[C@]2(C)[C@@]1(OC(=O)c1ccco1)C(=O)CCl` [mometasone furoate], the “saturated solubility in a range of liquid silicones” value [12] is given as “appropriately low” and the “reduction of acute radiation dermatitis versus emollient cream” value [13] is given as “significantly more effective than emollient cream alone”.
For `CCCCCCCCCCCCCCO` [C14 alcohol, myristyl alcohol], the “solubility of C14 alcohol in caprylyl methicone (amount to saturate)” value ([14]; in caprylyl methicone) is listed as 2.30%, the “solubility of C14 alcohol in propylene glycol (amount to saturate)” value ([14]; in propylene glycol) is listed as 2.44% and the “logP O/W” value [11] is listed as greater than 4.00.
